{"source": "patent US9695426B2", "about": "“Biofuel production by recombinant microorganisms” (The Regents of the University of California, priority 2007, dated 2017)", "molecules": {"B1": {"name": "TdcB: E. coli's catabolic threonine dehydratase (protein, UniProt P0AGF6 1-329, looked up)", "L-threonine dehydratase …": "MHITYDLPVAIDDIIEAKQRLAGRIYKTGMPRSNYFSERCKGEIFLKFENMQRTGSFKIRGAFNKLSSLTDAEKRKGVVACSAGNHAQGVSLSCAMLGIDGKVVMPKGAPKSKVAATCDYSAEVVLHGDNFNDTIAKVSEIVEMEGRIFIPPYDDPKVIAGQGTIGLEIMEDLYDVDNVIVPIGGGGLIAGIAVAIKSINPTIRVIGVQSENVHGMAASFHSGEITTHRTTGTLADGCDVSRPGNLTYEIVRELVDDIVLVSEDEIRNSMIALIQRNKVVTEGAGALACAALLSGKLDQYIQNRKTVSIISGGNIDLSRVSQITGFVDA"}}, "key": {"[1]": {"system": "native 1-butanol producers", "settings": "cited from earlier work"}, "[2]": {"system": "E. coli culture expressing kivd", "assay": "Alcohol productions with the supply of 2-keto acids", "type": "cell-based", "settings": "2-keto acid added to E. coli culture expressing kivd", "excerpt": "The addition of various 2-keto acids (see Table 13) to the E. coli culture expressing kivd confirmed the specific production of the corresponding alcohols by 2- to 23-fold."}, "AHAS I": {"biological_target": "AHAS I (Escherichia coli, UniProt P08142)", "sequence (P0ADF8 whole entry)": "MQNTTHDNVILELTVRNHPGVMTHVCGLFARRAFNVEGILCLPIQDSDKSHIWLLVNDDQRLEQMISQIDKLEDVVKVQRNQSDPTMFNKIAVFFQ", "sequence (P08142 whole entry)": "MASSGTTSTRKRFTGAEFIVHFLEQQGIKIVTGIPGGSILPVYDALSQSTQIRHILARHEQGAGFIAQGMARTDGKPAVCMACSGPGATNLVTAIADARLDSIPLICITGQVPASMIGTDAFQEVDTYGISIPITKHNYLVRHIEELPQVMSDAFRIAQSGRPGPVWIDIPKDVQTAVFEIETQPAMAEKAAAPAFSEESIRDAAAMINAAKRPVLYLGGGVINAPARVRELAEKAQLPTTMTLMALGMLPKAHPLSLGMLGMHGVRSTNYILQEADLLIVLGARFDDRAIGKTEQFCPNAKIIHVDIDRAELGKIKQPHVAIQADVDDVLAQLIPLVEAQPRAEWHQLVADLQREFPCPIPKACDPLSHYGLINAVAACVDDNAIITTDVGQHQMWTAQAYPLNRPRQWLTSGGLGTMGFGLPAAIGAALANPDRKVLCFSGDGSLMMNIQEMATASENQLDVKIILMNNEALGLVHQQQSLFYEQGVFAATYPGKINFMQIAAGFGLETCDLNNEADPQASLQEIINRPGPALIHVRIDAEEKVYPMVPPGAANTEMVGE", "settings": "read-out: Km value for 2-ketobutyrate; cited from earlier work"}, "E. coli IlvA": {"biological_target": "E. coli IlvA (Escherichia coli, UniProt P04968)", "sequence (P04968 whole entry)": "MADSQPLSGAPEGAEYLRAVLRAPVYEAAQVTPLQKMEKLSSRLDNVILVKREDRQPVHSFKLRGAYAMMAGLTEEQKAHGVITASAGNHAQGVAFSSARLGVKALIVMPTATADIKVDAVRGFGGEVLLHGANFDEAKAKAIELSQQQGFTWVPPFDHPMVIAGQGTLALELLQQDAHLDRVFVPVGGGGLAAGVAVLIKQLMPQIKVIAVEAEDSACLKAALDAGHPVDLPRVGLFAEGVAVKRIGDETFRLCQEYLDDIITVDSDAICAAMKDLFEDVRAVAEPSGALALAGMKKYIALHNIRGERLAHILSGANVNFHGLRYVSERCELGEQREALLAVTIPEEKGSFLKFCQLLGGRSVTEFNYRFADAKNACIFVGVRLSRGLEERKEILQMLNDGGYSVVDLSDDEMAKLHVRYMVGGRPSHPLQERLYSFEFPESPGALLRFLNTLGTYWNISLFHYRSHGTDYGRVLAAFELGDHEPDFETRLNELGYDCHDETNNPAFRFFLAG", "settings": "purified E. coli IlvA in the absence of isoleucine; cited from earlier work"}, "E. coli TdcB": {"biological_target": "E. coli TdcB (Escherichia coli, UniProt P0AGF6)", "settings": "E. coli TdcB in the absence of AMP; cited from earlier work"}, "E. coli BW25113": {"system": "E. coli BW25113", "assay": "propanol and butanol production via the threonine pathway with alternative enzymes", "type": "cell-based", "settings": "BW ΔmetA, Δtdh, ΔilvB, ΔilvI; tdcB with leuABCD on pCS20; 72 hours", "method": "For some alcohol fermentation experiments, single colonies were picked from LB plates and inoculated into 3 ml of LB media with the appropriate antibiotics (ampicillin 100 μg/ml, kanamycin 50 μg/ml, and spectinomycin 50 μg/ml). The overnight culture grown in LB at 37° C. in a rotary shaker (250 rpm) was then inoculated (1% vol/vol) into 20 ml of M9 medium (6 g Na2HPO4, 3 g KH2PO4, 0.5 g NaCl, 1 g NH4Cl, 1 mM MgSO4, 10 mg vitamin B1 and 0.1 mM CaCl2 per liter of water) containing 30 g/L glucose, 5 g/L yeast extract, appropriate antibiotics, and 1000× Trace Metal Mix A5 (2.86 g H3BO3, 1.81 g MnCl2.4H2O, 0.222 g ZnSO4.7H2O, 0.39 g Na2MoO4.2H2O, 0.079 g CuSO4.5H2O, 49.4 mg Co(NO3)2.6H2O per liter water) in 250 ml conical flask. The culture was allowed to grow at 37° C. in a rotary shaker (250 rpm) to an OD600 of 0.4˜0.6, then 12 ml of the culture was transferred to a 250 ml screw capped conical flask and induced with 1 mM IPTG. The induced cultures were grown at 30° C. in a rotary shaker (240 rpm). Samples were taken throughout the next three to four days by opening the screwed caps of the flasks, and culture broths were either centrifuged or filtered to retrieve the supernatant. […]\nMetabolite Detections. The produced alcohol compounds were quantified by a gas chromatograph (GC) equipped with flame ionization detector. […]"}}}
{"molecule": "CCCCO", "note": "[1-butanol]", "values": [{"measurement": "tolerated 1-butanol concentration", "setting": "[1]", "value": "up to 2%"}]}
{"molecule": "CCC(=O)C(=O)O", "note": "[2-ketobutyrate]", "values": [{"measurement": "Product 1-butanol", "setting": "[2]", "value": 492, "unit": "µM"}, {"measurement": "Product 1-propanol", "setting": "[2]", "value": 2138, "unit": "µM"}, {"measurement": "Product 2-methyl-1-butanol", "setting": "[2]", "value": 1315, "unit": "µM"}, {"measurement": "Product 2-phenylethanol", "setting": "[2]", "value": 26, "unit": "µM"}, {"measurement": "Product isobutanol", "setting": "[2]", "value": 98, "unit": "µM"}, {"measurement": "Km", "setting": "AHAS I", "value": "~5", "unit": "mM"}]}
{"molecule": "C[C@@H](O)[C@H](N)C(=O)O", "note": "[threonine]", "values": [{"measurement": "Km", "setting": "E. coli IlvA", "value": 8, "unit": "mM"}, {"measurement": "Km", "setting": "E. coli TdcB", "value": 20, "unit": "mM"}]}
{"molecule": "B1", "values": [{"measurement": "lower production of both target alcohols compared to IlvA", "setting": "E. coli BW25113", "value": 70, "unit": "%"}]}
